# Test results from patent US20210077498A1, “TRANSIENT PROTECTION OF HEMATOPOIETIC STEM AND PROGENITOR CELLS AGAINST IONIZING RADIATION” (G1 Therapeutics, Inc., priority 2015, published 2021).
# Tests used:
# [1] = tested on: CDK4/6-dependent cell lines; conditions: cited from earlier work
# [2] = tested on: CDK4/6 independent Rb-null melanoma cell line A2058; conditions: cited from earlier work
# [3] = tested on: mice exposed to peri-lethal and lethal TBI; conditions: compared to untreated controls; cited from earlier work
# [4] = in vivo; cited from earlier work
# [5] = tested on: 456 (395 non-mutant) kinases; experiment: DiscoveRx KINOMEscan profiling; type: binding; conditions: single concentration of 1000 nM
# HS68 cells = experiment: G1 arrest (cellular G1 and S-phase) assay, propidium iodide flow cytometry; type: cell-based; conditions: Homo sapiens
# Experimental: For determination of cellular fractions in various stages of the cell cycle following various treatments, HS68 cells (human skin fibroblast cell line (Rb-positive)) were stained with propidium iodide staining solution and run on Dako Cyan Flow Cytometer. The fraction of cells in G0-G1 DNA cell cycle versus the fraction in S-phase DNA cell cycle was determined using FlowJo 7.2.2 analysis.
# Formulas I, II, III, and IV were tested for their ability to arrest HS68 cells at the G1 phase of the cell cycle.
# tHS68 cells [6] = experiment: Cell cycle arrest in CDK4/6-dependent cells, propidium iodide flow cytometry; type: cell-based
# Source text: To test the ability of CDK4/6 inhibitors to induce a clean G1-arrest, a cell based screening method was used consisting of two CDK4/6-dependent cell lines (tHS68 and WM2664; Rb-positive) and one CDK4/6-independent (A2058; Rb-negative) cell line. […] At the conclusion of the experiment, cells were harvested, fixed, and stained with propidium iodide (a DNA intercalator), which fluoresces strongly red (emission maximum 637 nm) when excited by 488 nm light. Samples were run on Dako Cyan flow cytometer and >10,000 events were collected for each sample. Data were analyzed using FlowJo 2.2 software developed by TreeStar, Inc.
# WM2664 or tHS68 = experiment: Proliferation by EdU incorporation, RB-intact CDK4/6-dependent cell line; type: cell-based; conditions: 24 hours; WM2664 for PD0332991 (300 nM), tHS68 for Formula I and III (300 nM or 1000 nM)
# Experimental: (§1) SCLC cells were treated with DMSO or the indicated CDK4/6 inhibitor for 24 hours. The effect of CDK4/6 inhibition on proliferation was measured by EdU incorporation. An RB-intact, CDK4/6-dependent cell line (WM2664 or tHS68) and a panel of RB-negative SCLC cell lines (H69, H82, H209, H345, NCI417, or SHP-77) were analyzed for growth inhibition by the various CDK4/6 inhibitors.
# [7] = tested on: RB-negative SCLC cell lines (H69, H82, H209, H345, NCI417, SHP-77); experiment: Proliferation by EdU incorporation, RB-negative SCLC cell lines; type: cell-based; conditions: 24 hours; PD0332991 300 nM, Formula I and III 300 nM or 1000 nM
# Experimental: as §1
# [8] = tested on: H69 (human small cell lung cancer, Rb-negative) cells; experiment: CellTiter-Glo cellular proliferation assay, H69; type: cell-based; conditions: NCI-H69, 96 h, four days
# Experimental: (§2) Cellular proliferation assays were conducted using the following Rb-negative cancer cell lines: H69 (human small cell lung cancer—Rb-negative) cells or A2058 (human metastatic melanoma cells—Rb-negative). These cells were seeded in Costar (Tewksbury, Mass.) 3093 96 well tissue culture treated white walled/clear bottom plates. Cells were treated Formulas I, II, III, or IV as nine point dose response dilution series from 10 uM to 1 nM. Cells were exposed to compounds and then cell viability was determined after either four (H69) or six (A2058) days as indicated using the CellTiter-Glo® luminescent cell viability assay (CTG; Promega, Madison, Wis., United States of America) following the manufacturer's recommendations. Plates were read on BioTek (Winooski, Vt.) Syngergy2 multi-mode plate reader. The Relative Light Units (RLU) were plotted as a result of variable molar concentration and data was analyzed using Graphpad (LaJolla, Californaia) Prism 5 statistical software to determine the EC50 for each compound.
# [9] = tested on: A2058 (human metastatic melanoma cells, Rb-negative); experiment: CellTiter-Glo cellular proliferation assay, A2058; type: cell-based; conditions: A2058, 144 h, six days
# Experimental: as §2
# [10] = Metabolic stability in liver microsomes; type: in vitro ADME, and mouse; conditions: each of the species tested (human, monkey, dog, rat, mouse); 1 uM, 0.5 mg/mL microsomes
# Experimental: Human, mouse, and dog liver microsomes were purchased from Xenotech, and Sprague-Dawley rat liver microsomes were prepared by Absorption Systems. The reaction mixture comprising 0.5 mg/mL of liver microsomes, 100 mM of potassium phosphate, pH 7.4, 5 mM of magnesium chloride, and 1 uM of test compound was prepared. The test compound was added into the reaction mixture at a final concentration of 1 uM. An aliquot of the reaction mixture (without cofactor) was incubated in shaking water bath at 37 deg. C. for 3 minutes. The control compound, testosterone, was run simultaneously with the test compound in a separate reaction. The reaction was initiated by the addition of cofactor (NADPH), and the mixture was then incubated in a shaking water bath at 37 deg. C. Aliquots (100 μL) were withdrawn at 0, 10, 20, 30, and 60 minutes for the test compound and 0, 10, 30, and 60 minutes for testosterone. […] Test compound samples were analyzed using the Orbitrap high resolution mass spectrometer to quantify the disappearance of parent test compound and detect the appearance of metabolites. […] Half-lives were calculated using GraphPad software, fitting to a single-phase exponential decay equation.
# When calculated half-life was longer than the duration of the experiment, the half-life was expressed as > the longest incubation time. The calculated half-life is also listed in parentheses. […]
# tHDF cells = experiment: Caspase 3/7 assay after irradiation; type: cell-based; conditions: 100, 300 or 1,000 nM after 6, 8 or 10 Gy
# Experimental: (§3) DNA damage was determined using the g-H2A.X assay and apoptosis was determined with a Caspase 3/7 assay. For the g-H2AX assay, tHS68 cells were fixed and stained using the g-H2A.X Phosphorylation Assay Kit (Flow Cytometry; Millipore, Temecula, Calif.) by the manufacturer's instructions. g-H2AX-positive tHDF cells were then quantified using a CyAn ADP Analyzer (Beckman Coulter, Indianapolis, Ind.) and FlowJo analysis software (Version 7.2.2; Tree Star, Ashland, Oreg.). For the in vitro caspase 3/7 assay, tHDF cells were analyzed directly in the 96-well plates 24 hours after radiation or staurosporine treatment. Caspase 3/7 activation was measured using the Caspase-Glo 3/7 Assay System (Promega, Madison, Wis.) by following the manufacturer's instructions.
# (§4) For the g-H2AX assay, 30,000 cells were plated per well in 12-well plates. For the caspase 3/7 assay, 1,000 cells were plated per well in 96-well white wall clear bottom plates. Cells were incubated at 37° C. in a humidified atmosphere of 5% CO2 for 24 hours and then irradiated at 6 Gy, 8 Gy, or 10 Gy.
# tHS68 cells [11] = experiment: g-H2A.X assay after irradiation; type: cell-based; conditions: 100, 300 or 1,000 nM after 6, 8 or 10 Gy
# Experimental: as §3, §4
# [12] = tested on: mice after total body irradiation; experiment: Radiomitigation, survival after total body irradiation; type: in vivo
# Experimental: Wild-type mice, young adult (8-12 weeks of age) C57BL/6 (The Jackson Laboratory) or C3H (Harlan Sprague-Dawley) animals were used. Animals were irradiated using a 137Cs AECL GammaCell 40 Irradiator (Atomic Energy of Canada) or a XRAD320 (Precision XRay Inc.) biological irradiator. Experiments were carried out using the 137Cs source, unless otherwise noted.
# [13] = single oral dose 150 mg/kg 12 hours after exposure
smiles,measurement,setting,value
"O=C1NC(=O)c2c1c1c3ccccc3[nH]c1c1[nH]c3cc(Br)ccc3c21 [Formula 2BrIC, 2-bromo-12,13-dihydro-5H-indolo[2,3-a]pyrrolo[3,4]carbazole-5,6-dione]",IR protection,[1],exhibited IR protective characteristics
same,G1 arrest,[2],did not G1 arrest
same,protection from IR exposure,[2],failed to protect
same,HSPC protection and survival after TBI,[3],protect HSPCs and improve survival of mice
same,bioavailability,[4],restricted bioavailability
"CN1CCN(c2ccc(Nc3ncc4cc5n(c4n3)C3(CCCCC3)CNC5=O)nc2)CC1 [Formula I, 2′-((5-(4-methylpiperazin-1-yl)pyridin-2-yl)amino)-7′,8′-dihydro-6′H-spiro[cyclohexane-1,9′-pyrazino[1′,2′:1,5]pyrrolo[2,3-d]pyrimidin]-6′-one]","number of 395 non-mutant kinases inhibited, threshold 65%",[5]; inhibitory threshold 65%,92
same,"number of 395 non-mutant kinases inhibited, threshold 90%",[5]; inhibitory threshold 90%,31
same,"number of 395 non-mutant kinases inhibited, threshold 99%",[5]; inhibitory threshold 99%,6
same,EC50,HS68 cells,100 nM
same,cells in S-phase at the highest concentration shown,"tHS68 cells [6]; tHS68, 24 hours, 28% at baseline",6%
same,EC50,"tHS68 cells [6]; tHS68 cells, 24 hours, read-out: G1 cell cycle arrest EC50",80 nM
same,"effect on proliferation (cells in S phase, EdU) of Rb-positive cell line",WM2664 or tHS68,inhibits
same,"effect on growth (cells in S phase, EdU) of Rb-negative SCLC cell lines",[7],does not affect the growth
same,EC50,[8],> 3000 nM
same,EC50,[9],> 3000 nM
same,half-life in liver microsomes,[10],shorter half-life than PD0332991
same,radiation induced apoptosis (caspase 3/7 activity),tHDF cells,dose dependent decrease in radiation induced apoptosis
same,radiation induced DNA damage (H2AX foci),tHS68 cells [11],dose dependent decrease in radiation induced DNA damage
same,"survival after 7.5 Gy TBI, two doses",[12]; 150 mg/kg oral at 12 hours and 24 hours post TBI,Survival was also enhanced
same,survival after 7.2 Gy TBI,[12]; [13],provided radiomitigation
same,survival after 7.5 Gy TBI,[12]; [13],significant survival effect
